Experimental data reported in ChEMBL document CHEMBL1949518, “Synthesis and biological evaluation of some new 2-pyrazolines bearing benzene sulfonamide moiety as potential anti-inflammatory and anti-cancer agents” (Eur J Med Chem, 2011).

Experiments:
HOP-92 = assay: Anticancer activity against human HOP92 cells after 48 hrs by SRB assay; type: functional; conditions: HOP-92, 48 h
Mus musculus [1] = assay: Toxicity in Swiss albino mouse assessed as mortality at 100 mg/kg, po measured up to 24 hrs; type: organism-based; design: dose 100 mg/kg, route oral; conditions: in vivo
SNB-75 = assay: Anticancer activity against human SNB75 cells after 48 hrs by SRB assay; type: functional; conditions: SNB-75, 48 h
SF-295 = assay: Anticancer activity against human SF295 cells after 48 hrs by SRB assay; type: functional; conditions: SF-295, 48 h
OVCAR-8 = assay: Anticancer activity against human OVCAR8 cells after 48 hrs by SRB assay; type: functional; conditions: OVCAR-8, 48 h; for CC50: read-out: LC50 (the source's name)
SR = assay: Anticancer activity against human SR cells after 48 hrs by SRB assay; type: functional
CAKI-1 = assay: Anticancer activity against human Caki1 cells after 48 hrs by SRB assay; type: functional; conditions: CAKI-1, 48 h; for CC50: read-out: LC50 (the source's name)
OVCAR-3 = assay: Anticancer activity against human OVCAR3 cells after 48 hrs by SRB assay; type: functional; conditions: OVCAR-3, 48 h
NCI-H226 = assay: Anticancer activity against human NCI-H226 cells after 48 hrs by SRB assay; type: functional; conditions: NCI-H226, 48 h
DU-145 = assay: Anticancer activity against human DU145 cells after 48 hrs by SRB assay; type: functional; conditions: DU-145, 48 h; for CC50: read-out: LC50 (the source's name)
[2] = biological target: Prostaglandin G/H synthase 1 (Bos taurus, UniProt O62664); assay: Inhibition of bovine COX1 assessed as PGE2 formation preincubated for 10 mins by ELISA
Sequence of Prostaglandin G/H synthase 1 (O62664 whole entry): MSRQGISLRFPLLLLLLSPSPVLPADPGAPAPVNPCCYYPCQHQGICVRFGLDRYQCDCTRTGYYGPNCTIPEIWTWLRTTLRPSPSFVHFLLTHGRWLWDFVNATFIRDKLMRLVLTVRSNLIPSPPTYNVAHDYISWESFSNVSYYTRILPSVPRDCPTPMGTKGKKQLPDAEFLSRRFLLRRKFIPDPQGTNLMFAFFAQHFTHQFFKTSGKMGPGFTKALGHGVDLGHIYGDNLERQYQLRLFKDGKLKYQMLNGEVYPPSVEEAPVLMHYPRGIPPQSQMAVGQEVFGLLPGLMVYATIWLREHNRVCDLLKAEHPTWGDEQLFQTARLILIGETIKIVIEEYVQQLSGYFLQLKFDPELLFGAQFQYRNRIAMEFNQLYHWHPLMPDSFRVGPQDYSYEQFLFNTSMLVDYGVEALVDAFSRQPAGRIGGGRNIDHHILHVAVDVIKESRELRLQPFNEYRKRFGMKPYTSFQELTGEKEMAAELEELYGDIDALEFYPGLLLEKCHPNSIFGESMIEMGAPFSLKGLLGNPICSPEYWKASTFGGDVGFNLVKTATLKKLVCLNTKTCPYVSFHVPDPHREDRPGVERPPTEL

HOP-62 = assay: Anticancer activity against human HOP62 cells after 48 hrs by SRB assay; type: functional; conditions: HOP-62, 48 h
KM12 = assay: Anticancer activity against human KM12 cells after 48 hrs by SRB assay; type: functional; conditions: KM12, 48 h
SK-MEL-28 = assay: Anticancer activity against human SK-MEL-28 cells after 48 hrs by SRB assay; type: functional; conditions: SK-MEL-28, 48 h
PC-3 = assay: Anticancer activity against human PC3 cells after 48 hrs by SRB assay; type: functional; conditions: PC-3, 48 h; for CC50: read-out: LC50 (the source's name)
HT-29 = assay: Anticancer activity against human HT-29 cells after 48 hrs by SRB assay; type: functional; conditions: HT-29, 48 h
Mus musculus [3] = assay: Toxicity in Swiss albino mouse assessed as behavioral change at 100 mg/kg, po measured up to 24 hrs; type: organism-based; design: dose 100 mg/kg, route oral; conditions: in vivo
SK-MEL-2 = assay: Anticancer activity against human SK-MEL-2 cells after 48 hrs by SRB assay; type: functional; conditions: SK-MEL-2, 48 h
NCI-H23 = assay: Anticancer activity against human NCI-H23 cells after 48 hrs by SRB assay; type: functional; conditions: NCI-H23, 48 h
SNB-19 = assay: Anticancer activity against human SNB19 cells after 48 hrs by SRB assay; type: functional; conditions: SNB-19, 48 h
Rattus norvegicus = assay: Ulcerogenic activity in fasted Wistar albino rat at 60 mg/kg, po administered as 3 dose measured after 6 hrs post last dose; type: toxicity, organism-based; design: dose 60 mg/kg, route oral; conditions: in vivo
RPMI-8226 = assay: Anticancer activity against human RPMI8226 cells after 48 hrs by SRB assay; type: functional; conditions: RPMI-8226, 48 h
HCT-116 = assay: Anticancer activity against human HCT116 cells after 48 hrs by SRB assay; type: functional; conditions: HCT-116, 48 h

## Cc1cc(O)c(C2=NN(c3ccc(S(N)(=O)=O)cc3)C(c3ccc(Cl)cc3)C2)c(C)c1Cl (centres undefined)
HOP-92
  GI50: 10.3 µM
  TGI: 23.6 µM
Mus musculus [1]
  Activity: Non-toxic
SNB-75
  GI50: 17 µM
  TGI: 42.2 µM
SF-295
  GI50: 19.2 µM
  TGI: 44.4 µM
OVCAR-8
  GI50: 27.3 µM
  TGI: 100 µM
  CC50: 100 µM
SR
  GI50: 14.1 µM
  TGI: 37.5 µM
CAKI-1
  GI50: 23.3 µM
  TGI: 100 µM
  CC50: 100 µM
OVCAR-3
  GI50: 17.8 µM
  TGI: 33.3 µM
NCI-H226
  GI50: 13.4 µM
  TGI: 29.4 µM
DU-145
  GI50: 19.2 µM
  TGI: 38.4 µM
  CC50: 77 µM
[2]
  IC50: 89.5 µM
HOP-62
  GI50: 18.6 µM
  TGI: 34.8 µM
KM12
  GI50: 13.3 µM
  TGI: 28.3 µM
SK-MEL-28
  GI50: 19.4 µM
  TGI: 35.6 µM
PC-3
  GI50: 9.21 µM
  TGI: 23.9 µM
  CC50: 58.9 µM
HT-29
  GI50: 10.9 µM
  TGI: 25.8 µM
Mus musculus [3]
  Activity: Non-toxic
SK-MEL-2
  GI50: 21.4 µM
  TGI: 43.6 µM
NCI-H23
  GI50: 17.7 µM
  TGI: 43.7 µM
SNB-19
  GI50: 22.2 µM
  TGI: 62.6 µM
Rattus norvegicus
  Activity: Non-toxic

## Cc1cc(O)c(C2=NN(c3ccc(S(N)(=O)=O)cc3)C(c3ccc(N(C)C)cc3)C2)c(C)c1Cl (centres undefined)
HOP-92
  GI50: 3.74 µM
  LC50: 41.9 µM
  TGI: 17.6 µM
SNB-75
  GI50: 10.9 µM
  LC50: 51.2 µM
  TGI: 23.7 µM
SF-295
  GI50: 16 µM
  LC50: 62.4 µM
  TGI: 31.6 µM
OVCAR-8
  GI50: 5.75 µM
  TGI: 21.6 µM
  CC50: 66.4 µM
SR
  GI50: 1.28 µM
  LC50 (concentration killing 50% of cells): 45.9 µM
  TGI: 17.8 µM
CAKI-1
  GI50: 4.38 µM
  TGI: 18.2 µM
  CC50: 45 µM
OVCAR-3
  GI50: 4.21 µM
  LC50 (concentration killing 50% of cells): 39.6 µM
  TGI: 15.7 µM
NCI-H226
  GI50: 10.5 µM
  LC50: 55.6 µM
  TGI: 24.1 µM
DU-145
  GI50: 5.6 µM
  TGI: 17.6 µM
  CC50: 42.3 µM
HOP-62
  GI50: 10.4 µM
  LC50: 52.1 µM
  TGI: 23.3 µM
KM12
  GI50: 2.8 µM
  LC50: 38.2 µM
  TGI: 10.6 µM
SK-MEL-28
  GI50: 11.7 µM
  LC50: 48.9 µM
  TGI: 23.9 µM
PC-3
  GI50: 4.44 µM
  TGI: 16.8 µM
  CC50: 41 µM
RPMI-8226
  GI50: 3.99 µM
  LC50: 22.3 µM
  TGI: 5.02 µM
HT-29
  GI50: 3.3 µM
  LC50: 37.6 µM
  TGI: 11 µM
SK-MEL-2
  GI50: 11.9 µM
  LC50: 64 µM
  TGI: 27.6 µM
NCI-H23
  GI50: 5.82 µM
  LC50 (concentration killing 50% of cells): 47.3 µM
  TGI: 19.9 µM
HCT-116
  GI50: 3.47 µM
  LC50 (concentration killing 50% of cells): 36 µM
  TGI: 12.9 µM
SNB-19
  GI50: 12.4 µM
  LC50: 49.9 µM
  TGI: 24.9 µM
